Experiments:
SK-MEL-3 cells = assay: Assay 1 cell proliferation measurement (CTG, 72 h), SK-MEL-3; format: cell-based, human; details: Homo sapiens, SK-MEL3; Assay 1, 72 h, Cell Titer Glo; read-out: SK-MEL-3 IC50 [nM] (melanoma)
Procedure: Cell Proliferation Measurement
The antiproliferative activity of the compounds of the general formula (I) was examined in vitro in human cancer cells. For this purpose, the appropriate number of cells (Hela: 800; SK-MEL-3: 1000; A549: 800) were plated in 384-well plates with appropriate growth medium ((A549: DMEM/Ham's F12 (Biochrom; #FG 4815 with stabile Glutamine), FCS 10% final (Biochrom; #S 0415); Hela: DMEM/Ham's F12 (Biochrom; #FG 4815 with stabile Glutamine), FCS 10% final (Biochrom; #S 0415); SK-MEL-3: McCoy's 5A (Biochrom; #F 1015), FCS 10% final (Biochrom; #S 0415), L-Alanyl-L-Glutamine final: 2 mM, (Biochrom; #K 0302)) and incubated at 37° C. overnight. After 24 h, cells on one plate (0 h plate) were treated with 30 μl/cavity of CTG solution (Promega Cell Titer Glo (catalogue #G755B and G756B)) and incubated at room temperature for 10 min, and luminescence was measured by means of a VICTOR V (Perkin Elmer), in order to determine cell viability on commencement of treatment. The cells on the test plate were treated with the compounds of the general formula (I) as and incubated at 37° C. for 72 h. The compounds were added to the cells by means of an HP D300 digital dispenser in a 10-step 2.5-fold dilution series generally starting at a maximum final drug concentration of 100 nM. As control, the cells were treated with vehicle (DMSO at 0.3% final concentration). After 72 h, the cells were treated with 30 μl/cavity of CTG solution (Promega Cell Titer Glo (catalogue #G755B and G756B)) and incubated at room temperature for 10 min. and luminescence was measured by means of a VICTOR V (Perkin Elmer), in order to determine cell viability at the end of treatment. The percentage effect on cell growth and the IC50 derived therefrom were determined for each test substance using the values from the 0 h plate […] and the DMSO control […]. The IC50 values were calculated using a 4-parameter fit.

HeLa cells = assay: Assay 1 cell proliferation measurement (CTG, 72 h), HeLa; format: cell-based, human; details: Homo sapiens, HeLa; Assay 1, 72 h, Cell Titer Glo; read-out: HeLa IC50 [nM] (Cervical cancer)
Procedure, shortened: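 CTG luminescence readout after 72 h compound exposure at 37 °C; 10-point 2.5-fold dilutions from 100 nM max final; DMSO 0.3% vehicle. IC50 from 4-parameter fit, normalised to 0 h plate (max inhibition) and DMSO (min inhibition).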

human full length PDE3B = human full length PDE3B (Homo sapiens (Human), UniProt Q13370); assay: Assay 5 PDE3B enzyme inhibition (3H-cAMP SPA); format: biochemical; details: Sf9 cell extract
human full length PDE3B, sequence (Q13370 whole entry): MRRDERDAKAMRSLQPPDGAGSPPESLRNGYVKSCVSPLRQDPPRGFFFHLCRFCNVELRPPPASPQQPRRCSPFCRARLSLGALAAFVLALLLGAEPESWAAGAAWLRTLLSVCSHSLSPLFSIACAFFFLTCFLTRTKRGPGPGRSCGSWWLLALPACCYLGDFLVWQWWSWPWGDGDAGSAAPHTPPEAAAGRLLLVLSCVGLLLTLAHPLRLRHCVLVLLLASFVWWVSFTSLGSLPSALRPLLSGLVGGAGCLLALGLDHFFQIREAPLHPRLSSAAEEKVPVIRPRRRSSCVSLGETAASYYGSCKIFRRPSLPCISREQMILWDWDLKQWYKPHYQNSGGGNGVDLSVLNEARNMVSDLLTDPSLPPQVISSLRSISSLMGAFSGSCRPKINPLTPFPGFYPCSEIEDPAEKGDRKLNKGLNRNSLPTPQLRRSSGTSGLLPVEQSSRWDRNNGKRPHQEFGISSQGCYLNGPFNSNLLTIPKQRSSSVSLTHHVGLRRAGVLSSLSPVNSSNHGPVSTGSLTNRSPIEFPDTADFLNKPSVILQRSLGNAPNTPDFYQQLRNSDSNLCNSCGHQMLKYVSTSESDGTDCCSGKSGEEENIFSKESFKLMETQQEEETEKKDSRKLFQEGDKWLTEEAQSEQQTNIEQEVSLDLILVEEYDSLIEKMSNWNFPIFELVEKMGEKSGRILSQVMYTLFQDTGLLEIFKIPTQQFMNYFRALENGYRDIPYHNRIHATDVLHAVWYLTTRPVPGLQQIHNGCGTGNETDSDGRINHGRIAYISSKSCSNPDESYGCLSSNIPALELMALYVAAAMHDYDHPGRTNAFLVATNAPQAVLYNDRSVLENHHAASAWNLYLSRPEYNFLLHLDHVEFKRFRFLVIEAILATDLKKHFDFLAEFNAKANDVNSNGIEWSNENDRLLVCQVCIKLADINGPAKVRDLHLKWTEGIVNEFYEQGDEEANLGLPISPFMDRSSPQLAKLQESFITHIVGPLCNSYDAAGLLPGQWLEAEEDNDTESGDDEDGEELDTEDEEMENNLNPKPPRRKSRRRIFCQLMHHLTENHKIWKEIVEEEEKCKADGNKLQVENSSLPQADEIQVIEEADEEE
Procedure, shortened: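 Compounds in DMSO are mixed with diluted PDE3B extract from Sf9 cells, and reactions start on adding tritiated cAMP. After 60 min at room temperature, yttrium scintillation proximity beads terminate hydrolysis and signal is counted; IC50 values come from sigmoidal dose-response curves.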

human full length PDE3A = human full length PDE3A (Homo sapiens (Human), UniProt Q14432); assay: Assay 4 PDE3A enzyme inhibition (3H-cAMP SPA); format: biochemical; details: Sf9 cell extract
human full length PDE3A, sequence (Q14432 whole entry): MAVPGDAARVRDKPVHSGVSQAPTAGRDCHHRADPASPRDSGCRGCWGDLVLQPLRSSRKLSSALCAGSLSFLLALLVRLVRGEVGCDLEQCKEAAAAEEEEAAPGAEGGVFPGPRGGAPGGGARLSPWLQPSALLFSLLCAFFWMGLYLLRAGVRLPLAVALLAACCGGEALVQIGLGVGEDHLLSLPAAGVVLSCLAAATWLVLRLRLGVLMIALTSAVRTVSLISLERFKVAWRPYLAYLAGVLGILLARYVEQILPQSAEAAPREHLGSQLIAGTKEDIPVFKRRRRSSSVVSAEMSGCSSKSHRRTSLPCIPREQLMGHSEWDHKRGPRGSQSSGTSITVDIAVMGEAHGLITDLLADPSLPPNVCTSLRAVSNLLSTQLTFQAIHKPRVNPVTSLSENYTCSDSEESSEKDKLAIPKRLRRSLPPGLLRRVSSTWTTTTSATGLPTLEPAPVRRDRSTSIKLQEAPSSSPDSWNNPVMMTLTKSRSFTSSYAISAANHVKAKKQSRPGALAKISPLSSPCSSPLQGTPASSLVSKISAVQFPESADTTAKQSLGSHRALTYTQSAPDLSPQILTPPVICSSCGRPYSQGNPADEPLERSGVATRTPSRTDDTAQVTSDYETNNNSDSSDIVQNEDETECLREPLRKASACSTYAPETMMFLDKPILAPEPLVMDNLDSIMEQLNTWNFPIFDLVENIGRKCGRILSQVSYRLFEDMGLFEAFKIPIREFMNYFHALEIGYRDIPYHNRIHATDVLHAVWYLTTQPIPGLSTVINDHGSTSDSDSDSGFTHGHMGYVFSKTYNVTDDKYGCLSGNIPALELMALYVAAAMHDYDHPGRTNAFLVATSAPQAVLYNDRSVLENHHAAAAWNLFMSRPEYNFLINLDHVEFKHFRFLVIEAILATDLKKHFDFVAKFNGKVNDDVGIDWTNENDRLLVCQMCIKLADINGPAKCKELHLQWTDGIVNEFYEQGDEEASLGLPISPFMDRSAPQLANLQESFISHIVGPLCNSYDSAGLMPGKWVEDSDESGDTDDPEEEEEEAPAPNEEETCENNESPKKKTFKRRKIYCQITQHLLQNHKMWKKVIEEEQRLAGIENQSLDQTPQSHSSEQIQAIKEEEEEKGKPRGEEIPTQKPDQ
Procedure, shortened: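 Hydrolysis of [8-3H]cAMP by Sf9-expressed full-length PDE3A was measured by scintillation proximity, with enzyme diluted to keep kinetics linear and substrate consumption below 70%. Incubation ran 60 min at room temperature at pH 7.5.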

Structure (SMILES)	IC50 (SK-MEL-3 cells) [nM]	IC50 (HeLa cells) [nM]	IC50 (human full length PDE3B) [nM]	IC50 (human full length PDE3A) [nM]
C[C@@H]1OC(=O)NN=C1c1ccc(N2CCOCC2)c(F)c1 [Example 25-1, (6S)-5-(3-Fluoro-4-morpholinophenyl)-6-methyl-3,6-dihydro-2H-1,3,4-oxadiazin-2-one]	3	2	22	44
C[C@@H]1OC(=O)NN=C1c1cc(F)c(N2CCOCC2)c(F)c1 [Example 25-2, (6S)-5-(3,5-Difluoro-4-morpholinophenyl)-6-methyl-3,6-dihydro-2H-1,3,4-oxadiazin-2-one]	5	3	15	17
O=C1NN=C(c2ccc(N3CCC(F)(F)C3)c(F)c2)CO1 [Example 26, 5-[4-(3,3-Difluoropyrrolidin-1-yl)-3-fluorophenyl]-3,6-dihydro-2H-1,3,4-oxadiazin-2-one]	29	9	270	700
Cc1cc(C2=NNC(=O)OC2)ccc1-c1ccccc1 [Example 27, 5-(2-Methylbiphenyl-4-yl)-3,6-dihydro-2H-1,3,4-oxadiazin-2-one]	6	2	110	75
Cc1ncc(-c2ccc(C3=NNC(=O)OC3)cc2C)cn1 [Example 28, 5-[3-Methyl-4-(2-methylpyrimidin-5-yl)phenyl]-3,6-dihydro-2H-1,3,4-oxadiazin-2-one]	28	14	40	31
Cc1cc(C2=NNC(=O)OC2)ccc1-c1ccnn1C [Example 29, 5-[3-Methyl-4-(1-methyl-1H-pyrazol-5-yl)phenyl]-3,6-dihydro-2H-1,3,4-oxadiazin-2-one]	> 100	46	160	300
O=C1NN=C(c2ccc(-c3ccc(F)cc3)c(F)c2)CO1 [Example 30, 5-(2,4′-Difluorobiphenyl-4-yl)-3,6-dihydro-2H-1,3,4-oxadiazin-2-one]	4	1	79	99
Cc1ccc(-c2ccc(C3=NNC(=O)OC3)cc2C(F)(F)F)cn1 [Example 32, 5-[4-(6-Methylpyridin-3-yl)-3-(trifluoromethyl)phenyl]-3,6-dihydro-2H-1,3,4-oxadiazin-2-one]	7	5	110	67
O=C1NN=C(c2ccc(-c3cccnc3)c(C(F)(F)F)c2)CO1 [Example 33, 5-[4-(Pyridin-3-yl)-3-(trifluoromethyl)phenyl]-3,6-dihydro-2H-1,3,4-oxadiazin-2-one]	10	6	80	65
Nc1ccc(-c2ccc(C3=NNC(=O)OC3)cc2C(F)(F)F)cc1 [Example 34, 5-[4′-Amino-2-(trifluoromethyl)biphenyl-4-yl]-3,6-dihydro-2H-1,3,4-oxadiazin-2-one]	765	3	100	100
Cc1ccc(-c2ccc(C3=NNC(=O)OC3)cc2C(F)(F)F)cc1O [Example 35, 5-[3′-Hydroxy-4′-methyl-2-(trifluoromethyl)biphenyl-4-yl]-3,6-dihydro-2H-1,3,4-oxadiazin-2-one]	25	39	75	79
O=C1NN=C(c2ccc(-c3ccc(C(F)(F)F)nc3)c(C(F)(F)F)c2)CO1 [Example 36, 5-{3-(Trifluoromethyl)-4-[6-(trifluoromethyl)pyridin-3-yl]phenyl}-3,6-dihydro-2H-1,3,4-oxadiazin-2-one]	39	23	320	280
O=C1NN=C(c2ccc(-c3ccc(F)c(O)c3)c(C(F)(F)F)c2)CO1 [Example 37, 5-[4′-Fluoro-3′-hydroxy-2-(trifluoromethyl)biphenyl-4-yl]-3,6-dihydro-2H-1,3,4-oxadiazin-2-one]	12	37	130	150
Nc1cc(-c2ccc(C3=NNC(=O)OC3)cc2C(F)(F)F)c(F)cc1F [Example 38, 5-[5′-Amino-2′,4′-difluoro-2-(trifluoromethyl)biphenyl-4-yl]-3,6-dihydro-2H-1,3,4-oxadiazin-2-one]	> 100	83	260	210
Nc1ccc(-c2ccc(C3=NNC(=O)OC3)cc2C(F)(F)F)cc1F [Example 39, 5-[4′-Amino-3′-fluoro-2-(trifluoromethyl)biphenyl-4-yl]-3,6-dihydro-2H-1,3,4-oxadiazin-2-one]	6	4	75	72
Nc1ccc(-c2ccc(C3=NNC(=O)OC3)cc2C(F)(F)F)cn1 [Example 40, 5-[4-(6-Aminopyridin-3-yl)-3-(trifluoromethyl)phenyl]-3,6-dihydro-2H-1,3,4-oxadiazin-2-one]	7	5	39	42
Nc1cc(-c2ccc(C3=NNC(=O)OC3)cc2C(F)(F)F)ccc1Cl [Example 41, 5-[3′-Amino-4′-chloro-2-(trifluoromethyl)biphenyl-4-yl]-3,6-dihydro-2H-1,3,4-oxadiazin-2-one]	21	10	31	31
Cc1ccc(-c2ccc(C3=NNC(=O)OC3)cc2C(F)(F)F)cc1N [Example 42, 5-[3′-Amino-4′-methyl-2-(trifluoromethyl)biphenyl-4-yl]-3,6-dihydro-2H-1,3,4-oxadiazin-2-one]	64	55	250	170
Nc1cccc(-c2ccc(C3=NNC(=O)OC3)cc2C(F)(F)F)c1F [Example 43, 5-[3′-Amino-2′-fluoro-2-(trifluoromethyl)biphenyl-4-yl]-3,6-dihydro-2H-1,3,4-oxadiazin-2-one]	48	34	85	96
Nc1ccc(-c2ccc(C3=NNC(=O)OC3)cc2C(F)(F)F)c(F)c1 [Example 44, 5-[4′-Amino-2′-fluoro-2-(trifluoromethyl)biphenyl-4-yl]-3,6-dihydro-2H-1,3,4-oxadiazin-2-one]	9	14	200	190
Cn1cc(-c2ccc(C3=NNC(=O)OC3)cc2C(F)(F)F)cn1 [Example 45, 5-[4-(1-Methyl-1H-pyrazol-4-yl)-3-(trifluoromethyl)phenyl]-3,6-dihydro-2H-1,3,4-oxadiazin-2-one]	4	3	34	43
Cc1n[nH]cc1-c1ccc(C2=NNC(=O)OC2)cc1C(F)(F)F [Example 46, 5-[4-(3-Methyl-1H-pyrazol-4-yl)-3-(trifluoromethyl)phenyl]-3,6-dihydro-2H-1,3,4-oxadiazin-2-one]	34	21	17	27
O=C1NN=C(c2ccc(-c3ccc4cn[nH]c4c3)c(C(F)(F)F)c2)CO1 [Example 47, 5-[4-(1H-Indazol-6-yl)-3-(trifluoromethyl)phenyl]-3,6-dihydro-2H-1,3,4-oxadiazin-2-one]	2	2	33	53
Cc1ncc(-c2ccc(C3=NNC(=O)OC3)cc2C(F)(F)F)cc1F [Example 48, 5-[4-(5-Fluoro-6-methylpyridin-3-yl)-3-(trifluoromethyl)phenyl]-3,6-dihydro-2H-1,3,4-oxadiazin-2-one]	16	8	240	240

Source: patent publication US11427553B2, “Dihydrooxadiazinones” (Bayer Aktiengesellschaft, priority 2017, dated 2022)
